ChEMBL document CHEMBL1128020, “Synthesis and sar of 2h-1,2,4-benzothiadiazine-1,1-dioxide-3-carboxylic acid derivatives as novel potent glycine antagonists of the nmda receptor-channel complex” (Bioorg Med Chem Lett, 1994)

These molecules were tested against Glutamate receptor 4 (Homo sapiens, UniProt P48058) (assay: Binding affinity against AMPA receptor using [3H]AMPA as the radioligand.).
Sequence of Glutamate receptor 4 (P48058 whole entry): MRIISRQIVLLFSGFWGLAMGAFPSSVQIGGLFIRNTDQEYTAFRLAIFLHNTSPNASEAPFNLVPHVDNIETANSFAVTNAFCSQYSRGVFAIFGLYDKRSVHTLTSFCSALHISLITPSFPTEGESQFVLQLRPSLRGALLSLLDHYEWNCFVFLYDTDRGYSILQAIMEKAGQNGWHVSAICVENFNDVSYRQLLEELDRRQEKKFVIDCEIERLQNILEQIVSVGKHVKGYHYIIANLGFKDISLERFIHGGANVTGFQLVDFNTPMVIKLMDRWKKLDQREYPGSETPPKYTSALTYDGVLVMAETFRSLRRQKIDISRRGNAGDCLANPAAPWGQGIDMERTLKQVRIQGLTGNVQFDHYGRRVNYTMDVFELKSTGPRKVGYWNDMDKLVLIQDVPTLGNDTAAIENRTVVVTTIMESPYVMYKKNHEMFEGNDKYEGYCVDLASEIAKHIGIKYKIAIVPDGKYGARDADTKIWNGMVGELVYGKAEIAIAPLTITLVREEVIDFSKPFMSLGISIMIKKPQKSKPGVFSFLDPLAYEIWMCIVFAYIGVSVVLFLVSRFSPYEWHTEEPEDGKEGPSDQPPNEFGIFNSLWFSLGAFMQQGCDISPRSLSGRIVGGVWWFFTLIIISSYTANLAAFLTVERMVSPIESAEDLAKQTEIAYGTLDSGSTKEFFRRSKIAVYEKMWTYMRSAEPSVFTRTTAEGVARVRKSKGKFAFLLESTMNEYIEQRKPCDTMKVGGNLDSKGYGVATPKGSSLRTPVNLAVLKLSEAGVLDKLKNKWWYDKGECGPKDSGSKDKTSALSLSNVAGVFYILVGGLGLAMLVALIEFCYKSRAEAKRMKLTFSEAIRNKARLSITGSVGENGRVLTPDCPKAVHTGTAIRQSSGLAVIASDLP

IC50 [nM] | SMILES
38000 | O=C(O)C1Nc2cc(Cl)cc(Cl)c2S(=O)(=O)N1Cc1cccc(Br)c1 (stereo not given)

Each molecule was assayed against Glutamate NMDA receptor (assay: Binding affinity at the glycine binding site of the N-methyl-D-aspartate glutamate receptor in rat cortical membranes using [3H]dichlorokynurenate ([3H]DCKA) as radioligand).
Type: cell membranes, Membrane

SMILES | IC50 [nM]
O=C(O)CN1C(C(=O)O)Nc2cc(Cl)cc(Cl)c2S1(=O)=O (stereo not given) | 9500
CCOC(=O)C1Nc2cc(Cl)cc(Cl)c2S(=O)(=O)N1Cc1ccc(OC)cc1 (stereo not given) | 40
O=C(O)C1Nc2cc(Cl)cc(Cl)c2S(=O)(=O)N1CCCc1ccccc1 (stereo not given) | 33
O=C(O)C1Nc2cc(Cl)cc(Cl)c2S(=O)(=O)N1CCS(=O)(=O)c1ccccc1 (stereo not given) | 70
O=C(O)C1Nc2cc(Cl)cc(Cl)c2S(=O)(=O)N1CCc1ccccc1 (stereo not given) | 90
O=C(O)CCc1c(C(=O)O)[nH]c2cc(Cl)cc(Cl)c12 | 50
CCOC(=O)C1Nc2cc(Cl)cc(Cl)c2S(=O)(=O)N1Cc1ccccc1C (stereo not given) | 80
O=C(O)c1cc(O)c2c(Cl)cc(Cl)cc2n1 | 46
O=C(O)C1Nc2cc(Cl)cc(Cl)c2S(=O)(=O)N1c1ccccc1 (stereo not given) | 2600
CCOC(=O)C1Nc2cc(Cl)cc(Cl)c2S(=O)(=O)N1C (stereo not given) | 400
CCOC(=O)C1Nc2cc(Cl)cc(Cl)c2S(=O)(=O)N1Cc1ccccc1F (stereo not given) | 26
O=C(O)C1Nc2cc(Cl)cc(Cl)c2S(=O)(=O)N1Cc1ccccc1 (stereo not given) | 48
CCOC(=O)C1Nc2cc(Cl)cc(Cl)c2S(=O)(=O)N1Cc1ccccc1Cl (stereo not given) | 48
O=C(O)C1Nc2cc(Cl)cc(Cl)c2S(=O)(=O)N1CCCCc1ccccc1 (stereo not given) | 77
CCOC(=O)C1Nc2cc(Cl)cc(Cl)c2S(=O)(=O)N1Cc1cccc(N)c1 (stereo not given) | 29
O=C(O)C1Nc2cc(Cl)cc(Cl)c2S(=O)(=O)N1Cc1cccc(Br)c1 (stereo in doubt; (+)8k) | 1880
CCOC(=O)C1Nc2cc(Cl)cc(Cl)c2S(=O)(=O)N1CCSc1ccccc1 (stereo not given) | 38
O=C(O)C1Nc2cc(Cl)cc(Cl)c2S(=O)(=O)N1Cc1ccc(C(F)(F)F)cc1 (stereo not given) | 92
O=C(O)C1Nc2cc(Cl)cc(Cl)c2S(=O)(=O)N1Cc1ccccc1C(F)(F)F (stereo not given) | 100
CCOC(=O)C1Nc2cc(Cl)cc(Cl)c2S(=O)(=O)N1Cc1ccc(C)cc1 (stereo not given) | 45
CCOC(=O)C1Nc2cc(Cl)cc(Cl)c2S(=O)(=O)N1Cc1ccc(F)cc1 (stereo not given) | 44
CCOC(=O)C1Nc2cc(Cl)cc(Cl)c2S(=O)(=O)N1CCOc1ccccc1 (stereo not given) | 41
O=C(O)C1Nc2cc(Cl)cc(Cl)c2S(=O)(=O)N1CCCCCc1ccccc1 (stereo not given) | 36

The next lines start with the values.

IC50 [nM] | SMILES
26 | O=C(Nc1ccccc1)N[C@H]1C[C@H](C(=O)O)Nc2cc(Cl)cc(Cl)c21 (single isomer, unassigned)
22 | CCOC(=O)C1Nc2cc(Cl)cc(Cl)c2S(=O)(=O)N1CC(=O)c1ccccc1 (stereo not given)
21 | COc1ccccc1CN1C(C(=O)O)Nc2cc(Cl)cc(Cl)c2S1(=O)=O (stereo not given)
20 | O=C(O)C1Nc2cc(Cl)cc(Cl)c2S(=O)(=O)N1Cc1cccc(OC(F)(F)F)c1 (stereo not given)
20 | CCOC(=O)C1Nc2cc(Cl)cc(Cl)c2S(=O)(=O)N1Cc1cccc(-c2ccccc2)c1 (stereo not given)
20 | CCOC(=O)C1Nc2cc(Cl)cc(Cl)c2S(=O)(=O)N1Cc1ccc(Cl)cc1 (stereo not given)
18 | CCOC(=O)C1Nc2cc(Cl)cc(Cl)c2S(=O)(=O)N1Cc1cccc(C(F)(F)F)c1 (stereo not given)
17 | CCOC(=O)C1Nc2cc(Cl)cc(Cl)c2S(=O)(=O)N1Cc1cccc(C#N)c1 (stereo not given)
14 | CCOC(=O)C1Nc2cc(Cl)cc(Cl)c2S(=O)(=O)N1Cc1cccc(C)c1 (stereo not given)
13 | O=C(O)C1Nc2cc(Cl)cc(Cl)c2S(=O)(=O)N1Cc1cccc(F)c1 (stereo not given)
12 | CCOC(=O)C1Nc2cc(Cl)cc(Cl)c2S(=O)(=O)N1Cc1cccc([N+](=O)[O-])c1 (stereo not given)
12 | CCOC(=O)C1Nc2cc(Cl)cc(Cl)c2S(=O)(=O)N1Cc1cccc(OC)c1 (stereo not given)
11 | CCOC(=O)C1Nc2cc(Cl)cc(Cl)c2S(=O)(=O)N1Cc1cccc(Cl)c1 (stereo not given)
9 | CCOC(=O)C1Nc2cc(Cl)cc(Cl)c2S(=O)(=O)N1Cc1cccc(Oc2ccccc2)c1 (stereo not given)
8 | O=C(O)C1Nc2cc(Cl)cc(Cl)c2S(=O)(=O)N1Cc1cccc(I)c1 (stereo not given)
4 | O=C(O)C1Nc2cc(Cl)cc(Cl)c2S(=O)(=O)N1Cc1cccc(Br)c1 (single isomer, unassigned; (-))
